Test results taken from US20220125051A1, “PRE-HARVEST DESICCATION METHOD” (SYNGENTA CROP PROTECTION AG, priority 2019, published 2022).
Like-named read-outs stand apart in the source and are kept apart here.

Legend:
Test in all cases: Post-emergence efficacy, Method A
Format in all cases: in vivo
[1] = tested on: Euphorbia heterophylla (EPHHL); conditions: Euphorbia heterophylla, post-emergence, 312 h, evaluated after 13 days; for pest or weed control at 125 g/ha: Application Rate 125 g/Ha
Procedure, shortened: (§1)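 Sow in standard soil; grow 14 d under glasshouse control (24/16 °C, 14 h light, 65% humidity). Spray post-emergence with compound formulated in acetone/IF50, diluted in Empicol ESC70 (0.25% or 1%) + 1% ammonium sulphate. Return to glasshouse, water twice daily, score at 13 d on a 0–100 damage scale.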

[2] = tested on: Digitaria sanguinalis (DIGSA); conditions: Digitaria sanguinalis, post-emergence, 312 h, evaluated after 13 days; for pest or weed control at 125 g/ha: Application Rate 125 g/Ha
Procedure, shortened: as §1

[3] = tested on: Chenopodium album (CHEAL); conditions: Chenopodium album, post-emergence, 312 h, evaluated after 13 days; for pest or weed control at 125 g/ha: Application Rate 125 g/Ha
Procedure, shortened: as §1

Setaria faberi (SETFA) = conditions: Setaria faberi, post-emergence, 312 h, evaluated after 13 days; for pest or weed control at 125 g/ha: Application Rate 125 g/Ha
Procedure, shortened: as §1

Eleusine indica (ELEIN) = conditions: Eleusine indica, post-emergence, 312 h, evaluated after 13 days; for pest or weed control at 125 g/ha: Application Rate 125 g/Ha
Procedure, shortened: as §1

[4] = tested on: Echinochloa crus-galli (ECHCG); conditions: Echinochloa crus-galli, post-emergence, 312 h, evaluated after 13 days; for pest or weed control at 125 g/ha: Application Rate 125 g/Ha
Procedure, shortened: as §1

[5] = tested on: Amaranthus palmeri (AMAPA); conditions: Amaranthus palmeri, post-emergence, 312 h, evaluated after 13 days; for pest or weed control at 125 g/ha: Application Rate 125 g/Ha
Procedure, shortened: as §1

[6] = tested on: Ipomoea hederacea (IPOHE); conditions: Ipomoea hederacea, post-emergence, 312 h, evaluated after 13 days; for pest or weed control at 125 g/ha: Application Rate 125 g/Ha
Procedure, shortened: as §1

Lolium perenne (LOLPE) = conditions: Lolium perenne, post-emergence, 312 h, evaluated after 13 days; for pest or weed control at 125 g/ha: Application Rate 125 g/Ha
Procedure, shortened: as §1

[7] = Application Rate 500 g/Ha, Method A, read-out: Control of weed species after post-emergence application, EPHHL (100=total damage to plant; 0=no damage to plant)
[8] = Application Rate 500 g/Ha, Method A, read-out: Control of weed species after post-emergence application, DIGSA (100=total damage to plant; 0=no damage to plant)
[9] = Application Rate 500 g/Ha, Method A, read-out: Control of weed species after post-emergence application, CHEAL (100=total damage to plant; 0=no damage to plant)
[10] = Application Rate 500 g/Ha, Method A, read-out: Control of weed species after post-emergence application, SETFA (100=total damage to plant; 0=no damage to plant)
[11] = Application Rate 500 g/Ha, Method A, read-out: Control of weed species after post-emergence application, ELEIN (100=total damage to plant; 0=no damage to plant)
[12] = Application Rate 500 g/Ha, Method A, read-out: Control of weed species after post-emergence application, ECHCG (100=total damage to plant; 0=no damage to plant)
[13] = Application Rate 500 g/Ha, Method A, read-out: Control of weed species after post-emergence application, AMAPA (100=total damage to plant; 0=no damage to plant)
[14] = Application Rate 500 g/Ha, Method A, read-out: Control of weed species after post-emergence application, IPOHE (100=total damage to plant; 0=no damage to plant)
[15] = Application Rate 500 g/Ha, Method A, read-out: Control of weed species after post-emergence application, LOLPE (100=total damage to plant; 0=no damage to plant)
[16] = Application rate 500 g/Ha, 100=total damage to plant, 0=no damage to plant, read-out: Control of weed species after post-emergence application, EPHHL
[17] = Application rate 500 g/Ha, 100=total damage to plant, 0=no damage to plant, read-out: Control of weed species after post-emergence application, DIGSA
[18] = Application rate 500 g/Ha, 100=total damage to plant, 0=no damage to plant, read-out: Control of weed species after post-emergence application, CHEAL
[19] = Application rate 500 g/Ha, 100=total damage to plant, 0=no damage to plant, read-out: Control of weed species after post-emergence application, SETFA
[20] = Application rate 500 g/Ha, 100=total damage to plant, 0=no damage to plant, read-out: Control of weed species after post-emergence application, ELEIN
[21] = Application rate 500 g/Ha, 100=total damage to plant, 0=no damage to plant, read-out: Control of weed species after post-emergence application, ECHCG
[22] = Application rate 500 g/Ha, 100=total damage to plant, 0=no damage to plant, read-out: Control of weed species after post-emergence application, AMAPA
[23] = Application rate 500 g/Ha, 100=total damage to plant, 0=no damage to plant, read-out: Control of weed species after post-emergence application, IPOHE
[24] = Application rate 500 g/Ha, 100=total damage to plant, 0=no damage to plant, read-out: Control of weed species after post-emergence application, LOLPE
[25] = Method A, read-out: Control of weed species after post-emergence application, EPHHL (100=total damage to plant; 0=no damage to plant)
[26] = Method A, read-out: Control of weed species after post-emergence application, DIGSA (100=total damage to plant; 0=no damage to plant)
[27] = Method A, read-out: Control of weed species after post-emergence application, CHEAL (100=total damage to plant; 0=no damage to plant)
[28] = Method A, read-out: Control of weed species after post-emergence application, SETFA (100=total damage to plant; 0=no damage to plant)
[29] = Method A, read-out: Control of weed species after post-emergence application, ELEIN (100=total damage to plant; 0=no damage to plant)
[30] = Method A, read-out: Control of weed species after post-emergence application, ECHCG (100=total damage to plant; 0=no damage to plant)
[31] = Method A, read-out: Control of weed species after post-emergence application, AMAPA (100=total damage to plant; 0=no damage to plant)
[32] = Method A, read-out: Control of weed species after post-emergence application, IPOHE (100=total damage to plant; 0=no damage to plant)
[33] = Method A, read-out: Control of weed species after post-emergence application, LOLPE (100=total damage to plant; 0=no damage to plant)

Structure (SMILES) | pest or weed control at 500 g/ha [1, 7] [%] | pest or weed control at 500 g/ha [2, 8] [%] | pest or weed control at 500 g/ha [3, 9] [%] | pest or weed control at 500 g/ha (Setaria faberi (SETFA); [10]) [%] | pest or weed control at 500 g/ha (Eleusine indica (ELEIN); [11]) [%] | pest or weed control at 500 g/ha [4, 12] [%] | pest or weed control at 500 g/ha [5, 13] [%] | pest or weed control at 500 g/ha [6, 14] [%] | pest or weed control at 500 g/ha (Lolium perenne (LOLPE); [15]) [%] | pest or weed control at 500 g/ha [1, 16] [%] | pest or weed control at 500 g/ha [2, 17] [%] | pest or weed control at 500 g/ha [3, 18] [%] | pest or weed control at 500 g/ha (Setaria faberi (SETFA); [19]) [%] | pest or weed control at 500 g/ha (Eleusine indica (ELEIN); [20]) [%] | pest or weed control at 500 g/ha [4, 21] [%] | pest or weed control at 500 g/ha [5, 22] [%] | pest or weed control at 500 g/ha [6, 23] [%] | pest or weed control at 500 g/ha (Lolium perenne (LOLPE); [24]) [%] | further results
O=C(O)CC[n+]1ccc(-c2ccc(C(F)(F)F)cn2)cn1 [Compound A200] | 70 | 40 | 70 | 50 | 30 | 40 | 100 | 10 | 40 | – | – | – | – | – | – | – | – | – | –
O=S(=O)([O-])CC[n+]1ccc(-c2ccnc(C(F)(F)F)c2)cn1 [Compound A165] | 50 | 60 | 50 | 60 | 70 | 70 | 100 | 40 | 60 | – | – | – | – | – | – | – | – | – | –
CCOP(=O)(CC[n+]1ccc(-c2cnccn2)cn1)OCC [Compound A8] | – | – | – | – | – | – | – | – | – | 10 | 20 | 10 | 20 | 20 | 10 | 10 | 10 | 0 | –
Cc1cnc(-c2cc[n+](CCC(=O)O)nc2)c(F)c1 [Compound A178] | 40 | 10 | 70 | 10 | 0 | 10 | 90 | 20 | 0 | – | – | – | – | – | – | – | – | – | –
N#Cc1cnc(-c2cc[n+](CCS(=O)(=O)[O-])nc2)cn1 [Compound A191] | 30 | 20 | 30 | 20 | 30 | 10 | 100 | 30 | 30 | – | – | – | – | – | – | – | – | – | –
Cc1cnc(-c2cc[n+](CCC(=O)O)nc2)nc1 [Compound A36] | – | – | – | – | – | – | – | – | – | 90 | 90 | 90 | 100 | 100 | 90 | 100 | 30 | 80 | –
CN(C)c1ccnc(-c2cc[n+](CCS(=O)(=O)[O-])nc2)n1 [Compound A16] | – | – | – | – | – | – | – | – | – | 50 | 50 | 30 | 50 | 70 | 60 | 60 | 40 | 10 | –
CNS(=O)(=O)c1cnc(-c2cc[n+](CCC(=O)O)nc2)nc1 [Compound A209] | – | – | – | – | – | – | – | – | – | – | – | – | – | – | – | – | – | – | pest or weed control at 125 g/ha [1, 25]: 0%; pest or weed control at 125 g/ha [2, 26]: 30%; pest or weed control at 125 g/ha [3, 27]: 10%; pest or weed control at 125 g/ha (Setaria faberi (SETFA); [28]): 20%; pest or weed control at 125 g/ha (Eleusine indica (ELEIN); [29]): 0%; pest or weed control at 125 g/ha [4, 30]: 10%; pest or weed control at 125 g/ha [5, 31]: 30%; pest or weed control at 125 g/ha [6, 32]: 0%; pest or weed control at 125 g/ha (Lolium perenne (LOLPE); [33]): 10%
CN(C)C(=O)c1cnc(-c2cc[n+](CCC(=O)[O-])nc2)nc1 [Compound A92] | – | – | – | – | – | – | – | – | – | 70 | 60 | 90 | 90 | 90 | 80 | 90 | 100 | 50 | –
Cc1cc(-c2cc[n+](CCS(=O)(=O)[O-])nc2)ncn1 [Compound A117] | – | – | – | – | – | – | – | – | – | 100 | 70 | 90 | 100 | 90 | 90 | 90 | 80 | 50 | –
O=C(O)CC[n+]1ccc(-c2nccc(=O)[nH]2)cn1 [Compound A127] | – | – | – | – | – | – | – | – | – | 20 | 80 | 20 | 30 | 20 | 40 | 10 | 10 | 10 | –
O=S(=O)([O-])CCC[n+]1ccc(-c2nccc(CO)n2)cn1 [Compound A154] | – | – | – | – | – | – | – | – | – | – | – | – | – | – | – | – | – | – | pest or weed control at 125 g/ha [1, 25]: 70%; pest or weed control at 125 g/ha [2, 26]: 20%; pest or weed control at 125 g/ha [3, 27]: 50%; pest or weed control at 125 g/ha (Setaria faberi (SETFA); [28]): 30%; pest or weed control at 125 g/ha (Eleusine indica (ELEIN); [29]): 10%; pest or weed control at 125 g/ha [4, 30]: 20%; pest or weed control at 125 g/ha [5, 31]: 40%; pest or weed control at 125 g/ha [6, 32]: 20%; pest or weed control at 125 g/ha (Lolium perenne (LOLPE); [33]): 10%
